We go through eleven compounds from ChEMBL document CHEMBL1681667, “Structure-activity relationship studies of sphingosine-1-phosphate receptor agonists with N-cinnamyl-β-alanine moiety” (Bioorg Med Chem Lett, 2011).

In series [1] the target is Sphingosine 1-phosphate receptor 1 (Homo sapiens, UniProt P21453). Put plainly: Agonist activity at human S1P1 receptor expressed in CHO cells assessed as intracellular calcium levels. The format is functional, cell-based. (In general: A change in cytosolic calcium serves as a functional read-out for many receptors and channels.)
Chain of Sphingosine 1-phosphate receptor 1 (P21453 whole entry): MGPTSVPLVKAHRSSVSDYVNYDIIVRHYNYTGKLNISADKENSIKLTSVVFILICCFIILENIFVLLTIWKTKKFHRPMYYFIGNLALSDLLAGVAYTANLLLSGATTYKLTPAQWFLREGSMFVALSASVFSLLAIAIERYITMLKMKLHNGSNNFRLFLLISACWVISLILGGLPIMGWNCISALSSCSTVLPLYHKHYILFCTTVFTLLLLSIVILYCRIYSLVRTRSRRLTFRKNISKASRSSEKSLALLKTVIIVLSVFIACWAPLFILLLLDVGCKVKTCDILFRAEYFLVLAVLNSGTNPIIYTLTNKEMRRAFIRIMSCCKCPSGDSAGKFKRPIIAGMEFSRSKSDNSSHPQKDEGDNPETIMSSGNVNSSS
Series [2] has as its target Sphingosine 1-phosphate receptor 3 (Homo sapiens, UniProt Q99500). Put plainly: Agonist activity at human S1P3 receptor expressed in CHO cells assessed as intracellular calcium levels. The series is classed as functional, cell-based.
Series [3] is described as follows: Cmax in rat at 30 mg/kg, po. Conditions: in vivo. The format is ADME, organism-based. More on the design: dose 30 mg/kg, route oral.
Series [4] in a line: AUC (infinity) in rat at 30 mg/kg, po. The series is classed as ADME, organism-based. Also on record: time infinity, dose 30 mg/kg, route oral. Conditions: plasma.
Series [5] in a line: Half life in rat at 30 mg/kg, po. The series is classed as ADME, organism-based. Also on record: dose 30 mg/kg, route oral. As to conditions: in vivo.
Series [6] has as its system Mus musculus. Put plainly: Immunomodulatory activity in po dosed mouse assessed as peripheral blood lymphocyte lowering activity after 4 hrs. The series is classed as functional.
Series [7] concerns the target Sphingosine 1-phosphate receptor 5 (Homo sapiens, UniProt Q9H228). Put plainly: Agonist activity at human S1P5 receptor expressed in CHO cells assessed as intracellular calcium levels. The series is classed as functional, cell-based.
For series [8], the target named is Sphingosine 1-phosphate receptor 2 (Homo sapiens, UniProt O95136). Put plainly: Agonist activity at human S1P2 receptor expressed in CHO cells assessed as intracellular calcium levels. The format is functional, cell-based.
Chain of Sphingosine 1-phosphate receptor 2 (O95136 whole entry): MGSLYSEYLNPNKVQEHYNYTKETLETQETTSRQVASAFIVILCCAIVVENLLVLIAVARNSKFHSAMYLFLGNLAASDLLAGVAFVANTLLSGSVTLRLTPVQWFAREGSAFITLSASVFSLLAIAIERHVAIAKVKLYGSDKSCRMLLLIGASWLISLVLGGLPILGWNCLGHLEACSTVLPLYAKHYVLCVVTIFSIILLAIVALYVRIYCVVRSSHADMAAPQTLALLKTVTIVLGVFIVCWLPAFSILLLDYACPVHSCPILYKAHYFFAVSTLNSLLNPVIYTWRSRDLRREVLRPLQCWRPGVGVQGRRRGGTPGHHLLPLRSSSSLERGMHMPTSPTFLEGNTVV

Chain of Sphingosine 1-phosphate receptor 3 (Q99500 whole entry): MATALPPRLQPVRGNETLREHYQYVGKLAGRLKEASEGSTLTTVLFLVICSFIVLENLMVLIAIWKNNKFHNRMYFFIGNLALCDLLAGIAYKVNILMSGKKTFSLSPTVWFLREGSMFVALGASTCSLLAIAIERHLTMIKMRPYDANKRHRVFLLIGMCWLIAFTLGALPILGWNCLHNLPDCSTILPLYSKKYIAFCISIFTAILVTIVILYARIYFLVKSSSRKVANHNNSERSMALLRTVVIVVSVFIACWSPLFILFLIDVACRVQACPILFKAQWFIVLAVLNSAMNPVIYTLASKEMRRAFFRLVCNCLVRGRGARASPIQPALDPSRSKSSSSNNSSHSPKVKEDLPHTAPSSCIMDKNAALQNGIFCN
Chain of Sphingosine 1-phosphate receptor 5 (Q9H228 whole entry): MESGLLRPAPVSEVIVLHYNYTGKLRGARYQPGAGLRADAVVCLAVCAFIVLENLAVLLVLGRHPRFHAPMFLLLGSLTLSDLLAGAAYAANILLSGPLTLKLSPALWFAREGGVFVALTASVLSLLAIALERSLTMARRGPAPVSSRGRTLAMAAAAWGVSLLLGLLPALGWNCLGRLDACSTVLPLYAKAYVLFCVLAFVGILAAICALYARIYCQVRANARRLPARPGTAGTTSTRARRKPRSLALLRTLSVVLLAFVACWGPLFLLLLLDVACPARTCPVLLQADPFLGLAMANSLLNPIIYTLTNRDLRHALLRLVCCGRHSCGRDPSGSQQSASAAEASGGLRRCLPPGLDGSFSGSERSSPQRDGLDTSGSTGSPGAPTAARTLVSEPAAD

As a reminder, the EC50 is the concentration needed to bring the measured effect to its halfway point. In the case of `C/C(=C/CNCCC(=O)O)c1ccc(OCCCc2ccccc2)cc1`, the results for the EC50 in series [1] and in series [2] were 0.93 µM and above 10 µM, respectively.
What is called Cmax is the highest concentration seen after dosing. In general, AUC(0-inf) refers to the area under the concentration-time curve extrapolated to infinity. Higher therefore signals high exposure. A word on the half-life: it is the time in which the quantity being followed falls by half. A lower half-life goes with fast loss. On to `O=C(O)CCNCCCc1ccc(OCCCc2ccccc2)cc1`, for which the half-maximal effective concentration (EC50) was found to be 2.6 µM in series [1] and 9 µM in series [2]. The compound also displayed a Cmax in series [3] of 28000 ng/mL. In addition, the AUC(0-inf) in series [4] amounted to 174 µg·h/mL. Besides, the half-life in series [5] is 3.8 h.
Turning to `O=C(O)CCNCCCc1ccc(OCCCCc2ccccc2)cc1`, the EC50 in series [1] is 1.5 µM; in series [2] it was above 10 µM.
The matching figures for `C/C(=C\c1ccc(OCCCc2ccccc2)cc1)CNCCC(=O)O`: 0.033 µM and 1.9 µM.
Usually ED50 stands for the dose that gives a 50% effect, or the effect in half of the subjects. Regarding `O=C(O)CCN1CC=C(c2ccc(OCCCc3ccccc3)cc2)CC1`, the EC50 was found to be 0.045 µM in series [1] and 1.2 µM in series [2]. For the same compound, the ED50 in series [6] was determined as 1.4 mg/kg.
The matching figures for `O=C(O)CCNC/C=C/c1ccc(OCCCc2ccccc2)cc1`: 0.07 µM, 3.3 µM and 4.6 mg/kg.
As to `O=C(O)CCN1CCC(c2ccc(OCCCc3ccccc3)cc2)CC1`, the EC50 was 1.6 µM in series [1] and above 10 µM in series [2].
For `O=C(O)CCNCCCc1ccc(OCCCCCCc2ccccc2)cc1`, in that order: 2.7 µM and above 10 µM.
As for `O=C(O)CCNCCCc1ccc(OCCCCCc2ccccc2)cc1`, the half-maximal effective concentration (EC50) in series [1] was 0.16 µM; in series [7], 0.17 µM; in series [2] it was 4.2 µM; in series [8] it was above 10 µM. Moreover, in series [6], the ED50 is 26 mg/kg.
With `C/C(=C\CNCCC(=O)O)c1ccc(OCCCc2ccccc2)cc1`, the EC50 in series [1] was 0.021 µM; in series [2], above 10 µM. Besides, the 50% effective dose (ED50) in series [6] was found to be 0.69 mg/kg. In addition, in series [5], the half-life was 7.4 h.
On to `O=C(O)CCN1CCC/C(=C\c2ccc(OCCCc3ccccc3)cc2)C1`, for which the results for the EC50 in series [1] and in series [2] were 1.5 µM and above 10 µM, respectively.
